In ChEMBL document CHEMBL1150142, “New onoceranoid triterpene constituents from Lansium domesticum” (J Nat Prod, 2002):
Activity calls are given as the source filed them. The calls are words filed in the database; no cut-off is given here.

Assay: Inhibition of trypsin

Activity, inactive:
C=C(C)[C@@H]1CC=C(C)[C@H](CC[C@H]2C(=C)CC[C@H]3C(C)(C)C(=O)CC[C@]23C)[C@@]1(C)CCC(=O)OC
C=C(C)[C@@H]1CCC(=C)[C@H](CC[C@H]2C(C)=CC[C@@H](C(=C)C)[C@]2(C)CCC(=O)O)[C@@]1(C)CCC(=O)O
C=C(C)[C@@H]1CC=C(C)[C@H](CC[C@H]2C(=C)CC[C@H]3C(C)(C)C(=O)CC[C@]23C)[C@@]1(C)CCC(=O)O
C=C1CC[C@H]2C(C)(C)[C@@H](O)CC[C@]2(C)[C@H]1CC[C@H]1C(C)=CC[C@H]2C(C)(C)C(=O)CC[C@]12C
C=C1CC[C@H]2C(C)(C)C(=O)CC[C@]2(C)[C@H]1CC[C@H]1C(C)=CC[C@H]2C(C)(C)[C@@H](O)CC[C@]12C
